Data set [1] concerns glioblastoma LN-229 cells. The data set can be described thus: MTT cell viability assay. Type of data set: cell-based, human. The conditions noted are these: 48 hours of incubation. On the procedure:
(§1) The glioblastoma cell lines LN-229 and U87 and the reference human normal skin fibroblast BJ were obtained from the American Type Culture Collection (ATCC). Cells were grown as monolayers when cultured in cell culture flasks and cultured in Dulbecco's Modified Eagle Medium (DMEM) – LN-229 and Eagle's Minimum Essential Medium (EMEM) – U87 and BJ, supplemented with 10% (v/v) fetal bovine serum, penicillin (10 000 U mL^−1), streptomycin (10 mg mL^−1) and amphotericin B (250 μg mL^−1). The cells were incubated at 37 °C, 5% CO2 atmosphere. The cells were maintained in the logarithmic growth phase by regular passage at 80% confluence.
(§2) The cytotoxicity of the tested compounds was evaluated against both human glioblastoma LN-229 and U-87 as well as normal BJ cell lines. The cells were plated in 96-well culture plates (2 × 10^4 well) and after 24 h incubation the cells were treated with the tested compounds in the concentration range 1–50 μM. The cells were cultured for the next 48 h. The cytotoxicity of the compounds was evaluated using the MTT colorimetric method as previously described.[28,29] IC50 values were determined using the AAT Bioquest IC50 calculator as the concentration of compounds capable of reducing cell viability by 50%. The experiment was performed in triplicate for each concentration. To examine the cytotoxic effect of compounds on cell morphology, cells were examined under an inverted phase contrast microscope Nikon Eclipse Ti with NIS Element software (Tokyo, Japan).
(In general: Formazan colour is commonly taken as a measure of viable cells.)

Data set [2] relates to glioblastoma U87 cells. In words: MTT cell viability assay. The format is cell-based, human. The conditions noted are these: 48 hours of incubation. As to the method:
as §1, §2

For data set [3], the system named is normal skin fibroblast BJ cells. The data set can be described thus: MTT cell viability assay. The settings on record: BJ normal fibroblasts, 48 hours of incubation. Type of data set: cell-based, human. On the procedure: as §1, §2
Data set [4] concerns Bacillus cereus ŁOCK 0807. In words: MIC determination. Type of data set: cell-based. The settings on record: 18 h. On the procedure:
(§3) The antibacterial activity of tested samples was assessed against both gram-positive bacteria (Staphylococcus aureus ATCC 25923, Staphylococcus aureus ATCC 6538, Staphylococcus epidermidis ATCC 12228, Enterococcus faecalis ATCC 29212, Listeria monocytogenes ATCC 19115, Bacillus subtilis ATCC 6633, Bacillus cereus ATCC 10876) and gram-negative bacteria (Escherichia coli ATCC 10530, Salmonella typhimurium ATCC 14028). Antibacterial properties were evaluated using both the dilution method (employing DMSO and 96-well plates) and the diffusion-well method (using Mueller Hinton Agar, Merck, Germany).
(§4) The minimum inhibitory concentrations (MICs) of the tested samples were evaluated against a panel of reference microorganisms obtained from the American Type Culture Collection (ATCC), including Gram-negative bacteria (Escherichia coli ATCC 10530, Salmonella typhimurium ATCC 14028), and Gram-positive bacteria (Staphylococcus aureus ATCC 25923, Staphylococcus aureus ATCC 6538, Staphylococcus epidermidis ATCC 12228, Enterococcus faecalis ATCC 29212, Listeria monocytogenes ATCC 19115, Bacillus subtilis ATCC 6633), and one strain (Bacillus cereus ŁOCK 0807) obtained from the Pure Culture of Industrial Microorganisms of the Institute of Fermentation Technology and Microbiology ŁOCK 105 (Łódź, Poland).
(§5) The microorganism cultures with a density of 1.5 × 10^8 CFU mL^−1 (corresponding to a McFarland standard of 0.5) were plated on Mueller–Hinton Agar (Merck, Germany) following the procedures recommended by the European Committee on Antimicrobial Susceptibility Testing (EUCAST).[47] Wells measuring 10 mm in diameter were cut into the medium. The tested compounds were dissolved in a DMSO solution, which was recommended due to their chemical structures. Subsequently, 100 μL of prepared solutions containing the tested compounds at concentrations ranging from x μg mL^−1 to x μg mL^−1 were added to each well. The plates were incubated at 30 °C (for Bacillus subtilis and Bacillus cereus) or 37 °C (for other bacteria) for 18 hours. After incubation, the minimum inhibitory concentration (MIC value) was determined (the lowest concentration of the tested compounds that prevents bacterial growth) and expressed in μg mL^−1. The experiment was conducted in three independent replicates. Ciprofloxacin (Sigma Aldrich, Saint Louis, MO, USA) was used as a reference antimicrobial agent against Gram-negative bacteria, while vancomycin (Sigma Aldrich, Saint Louis, MO, USA) was used as a reference antimicrobial agent against Gram-positive bacteria.

Data set [5] relates to Bacillus subtilis ATCC 6633. The data set can be described thus: MIC determination. The format is cell-based. As to the method: as §3, §4, §5
Data set [6] relates to Enterococcus faecalis ATCC 29212. The data set can be described thus: MIC determination. Type of data set: cell-based. The settings on record: E. faecalis ATCC 29212, 18 h. On the procedure:
as §3, §4, §5

Data set [7] relates to Escherichia coli ATCC 10530. The data set can be described thus: MIC determination. The format is cell-based. The conditions noted are these: Escherichia coli ATCC 10530; 18 h. As to the method:
as §3, §4, §5

Data set [8] deals with Listeria monocytogenes ATCC 19115. In words: MIC determination. The conditions noted are these: Listeria monocytogenes ATCC 19115, 18 h. Type of data set: cell-based. On the procedure: as §3, §4, §5
Data set [9] has as its system Salmonella typhimurium ATCC 14028. In words: MIC determination. Type of data set: cell-based. The settings on record: 18 h. As to the method:
as §3, §4, §5

For data set [10], the system named is Staphylococcus aureus ATCC 25923. In words: MIC determination. Type of data set: cell-based. The conditions noted are these: S. aureus ATCC 25923, 18 h. On the procedure: as §3, §4, §5
The subject of data set [11] is Staphylococcus aureus ATCC 6538. In words: MIC determination. Type of data set: cell-based. The settings on record: S. aureus ATCC 6538, 18 h. As to the method:
as §3, §4, §5

In data set [12] the test system is Staphylococcus epidermidis ATCC 12228. In words: MIC determination. Type of data set: cell-based. The settings on record: S. epidermidis ATCC 12228, 18 h. As to the method: as §3, §4, §5
The subject of data set [13] is S. aureus ATCC 25923. The data set can be described thus: Diffusion-well method, inhibition zones. The format is cell-based, Staphylococcus aureus. The settings on record: 500 µg/mL, wells 10 mm. As to the method: as §3
(§6) 24 hour bacterial cultures with a density of 1–2 × 10^8 CFU mL^−1 were plated (0.1 mL) on Mueller–Hinton Agar (Merck, Germany). Subsequently, wells with a diameter of 10 mm were cut out from and filled with 100 μL of the tested compound at a concentration of 10–500 μg mL^−1 (diluted in DMSO). After an 18-hour incubation at either 30 °C (for Bacillus ssp.) or 37 °C (for other tested microorganisms), the inhibition zones around the wells were measured, and the results were expressed in millimetres (Table S9 ^†).

Data set [14] deals with S. aureus ATCC 6538. The data set can be described thus: Diffusion-well method, inhibition zones. Type of data set: cell-based, Staphylococcus aureus. The settings on record: 500 µg/mL, wells 10 mm. As to the method:
as §3, §6

For data set [15], the system named is E. faecalis ATCC 29212. The data set can be described thus: Diffusion-well method, inhibition zones. Type of data set: cell-based, Enterococcus faecalis. The conditions noted are these: 500 µg/mL, wells 10 mm. As to the method: as §3, §6
Data set [16] has as its system B. cereus ŁOCK 0807. In words: Diffusion-well method, inhibition zones. The format is cell-based, Bacillus cereus. The settings on record: 500 µg/mL, wells 10 mm.
The test system of data set [17] is L. monocytogenes ATCC 19115. The data set can be described thus: Diffusion-well method, inhibition zones. Type of data set: cell-based, Listeria monocytogenes. The settings on record: 500 µg/mL, wells 10 mm. As to the method: as §3, §6
In data set [18] the test system is E. coli ATCC 10530. The data set can be described thus: Diffusion-well method, inhibition zones. The format is cell-based, Escherichia coli. The conditions noted are these: 500 µg/mL, wells 10 mm. On the procedure:
as §3, §6

The nature of data set [19]: Time-dependent UV-vis solution stability in DMSO. Type of data set: physicochemical. The settings on record: 0 min to 48 h, room temperature. From the text:
The stability of metal complexes is a crucial property that provides insight into their interactions with biological molecules, as it directly impacts their reactivity, bioavailability, and effectiveness in therapeutic applications. Additionally, the solubility of these complexes in dimethyl sulfoxide (DMSO) is of considerable importance, as solubility data are essential for optimizing storage conditions and ensuring compatibility with biological assays.[39] DMSO, a widely used solvent in drug discovery, serves as a medium that supports the stability and bioavailability of complexes under assay conditions, which is critical for maintaining the integrity of analytical protocols and enabling accurate assessments of biological activity. For the obtained complexes, the time-dependent UV-vis investigations in DMSO (Fig. 5 and S9 ^†) were carried out from 0 min to 48 h (0 min, 30 min, 1 h, 2 h, 3 h, 24 h, 48 h).
The sample solutions (50 μL (1.0 × 10^−3 M)) of the complexes were prepared in DMSO (Sigma Aldrich, ≥99.9%). The absorption spectra of the complexes were measured with increasing time (0 min, 30 min, 60 min, 2 h, 3 h, 24 h, 48 h) at room temperature. All measurements were performed on the Shimadzu UV-2401PC.

Converted amounts (≈) assume the structure as drawn. Like-named read-outs stand apart in the source and are kept apart here.

For orientation: IC50 means the concentration needed to halve the response being measured. Lower therefore signals greater potency in that assay. In general, MIC refers to the lowest concentration that inhibits growth of the organism.

Consider `NC(=NN=Cc1ccccc1)c1cc(Cl)ccn1` [Complex L3, N′-(benzylidene)-4-chloropicolinohydrazonamide], for which the half-maximal inhibitory concentration (IC50) in data set [1] (Homo sapiens) is more than 50 µM; in [2] (Homo sapiens, U-87 MG) it was more than 50 µM; in data set [3] (Homo sapiens) it was more than 50 µM.
As for `NC(=NN=Cc1ccc([N+](=O)[O-])cc1)c1cccc(N2CCCC2)n1.[Cd+2].[Cl-].[Cl-]` [Complex 9, CdL4Cl2], the minimal inhibitory concentration (MIC) in data set [4] (Bacillus cereus ŁOCK 0807) was 250 µg/mL; in data set [5] (18 h), more than 500 µg/mL; in [6], 10 µg/mL; in [7], 10 µg/mL; in [8], 500 µg/mL; in [9] (S. typhimurium ATCC 14028) it was more than 500 µg/mL. In addition, the minimum inhibitory concentration (MIC) is 10 µg/mL in [10], 250 µg/mL in data set [11] and more than 500 µg/mL in data set [12]. Also, the Inhibition zone was 16 mm in data set [13]; 13 mm in data set [14]; 14 mm in data set [15]; 13 mm in [16]; 12 mm in [17]; 20 mm in data set [18]. The half-inhibitory concentration (IC50) in [1] is 45.3 ± 2.18 µM; in data set [2], more than 50 µM; in data set [3] it was 1.05 ± 0.32 µM.
With `N/C(=N\N=C\c1ccc([N+](=O)[O-])cc1)c1cccc(Cl)n1` [Complex L2, 6-chloro-N′-(4-nitrobenzylidene) picolinohydrazonamide], the IC50 in data set [1] (Homo sapiens) is 40.8 ± 6.12 µM; in data set [2] (Homo sapiens, U-87 MG) it was more than 50 µM; in data set [3] (Homo sapiens) it was 35.5 ± 4.33 µM.
For `CN[C@H](CC(C)C)C(=O)N[C@H]1C(=O)N[C@@H](CC(N)=O)C(=O)N[C@H]2C(=O)N[C@H]3C(=O)N[C@H](C(=O)N[C@H](C(=O)O)c4cc(O)cc(O)c4-c4cc3ccc4O)[C@H](O)c3ccc(c(Cl)c3)Oc3cc2cc(c3O[C@@H]2O[C@H](CO)[C@@H](O)[C@H](O)[C@H]2O[C@H]2C[C@](C)(N)[C@H](O)[C@H](C)O2)Oc2ccc(cc2Cl)[C@H]1O` [Vancomycin, vancomycin, reference compound], the MIC in [4] (Bacillus cereus) amounted to 1 µg/mL (≈ 0.69 µM); in data set [5] (ATCC6633, 18 h, read-out: MIC) it was 1 µg/mL (≈ 0.69 µM); in [6] (Enterococcus faecalis, ATCC29212, read-out: MIC), 1 µg/mL (≈ 0.69 µM); in data set [8] (ATCC19115, read-out: MIC), 2 µg/mL (≈ 1.38 µM); in data set [10] (Staphylococcus aureus, ATCC25923, read-out: MIC), 1 µg/mL (≈ 0.69 µM); in data set [11] (Staphylococcus aureus, ATCC6538, read-out: MIC) it was 1 µg/mL (≈ 0.69 µM). Further, the MIC in data set [12] (Staphylococcus epidermidis, ATCC12228, read-out: MIC) turned out to be 1 µg/mL (≈ 0.69 µM).
In the case of `N.N.[Cl][Pt][Cl]` [Cisplatin, reference compound], the values for the IC50 in data set [1], in data set [2] and in [3] were 29.09 ± 0.23 µM, 39.6 ± 1.13 µM and more than 50 µM, respectively.
Take `O=C(O)c1cn(C2CC2)c2cc(N3CCNCC3)c(F)cc2c1=O` [Ciprofloxacin, reference compound]: the MIC in data set [7] and in data set [9] (Salmonella enterica) was 1 µg/mL (≈ 3.02 µM) each time.
Consider `NC(=NN=Cc1ccccc1)c1cc(Cl)ccn1.[Cd+2].[Cl-].[Cl-]` [Complex 8, CdL3Cl2], for which the minimum inhibitory concentration (MIC) was more than 500 µg/mL in data set [4] (Bacillus cereus ŁOCK 0807); more than 500 µg/mL in data set [5] (18 h); more than 500 µg/mL in data set [6]; 10 µg/mL in data set [7]; more than 500 µg/mL in data set [8]; more than 500 µg/mL in [9] (S. typhimurium ATCC 14028). The values for the minimum inhibitory concentration (MIC) in data set [10], in [11] and in data set [12] were 100 µg/mL, 500 µg/mL and more than 500 µg/mL, respectively. For the same compound, the Inhibition zone was 15 mm in [13] and 20 mm in data set [18]. Besides, the results for the IC50 in data set [1], in data set [2] and in data set [3] were more than 50 µM, 10.9 ± 3.8 µM and 25.8 ± 4.48 µM, respectively. In addition, the hypochromic effect in data set [19] was 36.3%. In data set [19], the “shift of peak maxima” value is listed as 4 nm.

The values are drawn from PMC12150283, “Synthesis of new Ag(I) and Cd(II) hydrozanomide-based complexes with antibacterial and anticancer properties” (RSC Advances, 2025).
